Results as given in ChEMBL document CHEMBL1201862, “PubChem BioAssay data set” (2004).
Activity calls are given as the source filed them. Cut-off read from the data, not from the text of the source, for most assays here: actives have a measured EC50 and inactives only a lower limit.

Assays:
[1] = inhibitors of firefly luciferase expression or activity, dose response, H4 neuroglioma cells, luminescence (AID 1990); format: functional, cell-based
[2] = Luminescence Cell-Based Dose Response HTS to Identify Inhibitors of 5'UTR Stem-Loop Driven Prion Protein mRNA Translation in H4 Neuroglioblastoma Cells. [Related pubchem assays: 1827 (Project Summary), 1813 (Primary HTS)]; format: functional
[3] = inhibitors of SNCA 5'UTR-driven reporter translation, confirmation, H4 neuroglioma cells, luminescence (AID 1988); format: functional, cell-based
[4] = inhibitors of intracellular T. cruzi replication, confirmation, NIH3T3 host cells, beta-gal luminescence (AID 2044); format: functional, cell-based;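 note: intracellular parasites grown in NIH/3T3 mouse fibroblasts as host cells; luminescent beta-galactosidase reporter signal from transgenic T. cruzi replicating inside host cells; inhibitors lower the luminescence signal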
[5] = cytotoxicity toward NIH3T3 fibroblasts, dose response, counter-screen, cell-based, ATP luminescence, mouse fibroblasts (AID 2010); format: functional;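 note: cells exposed to compound for about 90 hours before reading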
[6] = target: Heat shock protein HSP 90-alpha (Homo sapiens, UniProt P07900); format: functional, organism-based
[7] = cytotoxicity in NIH3T3 fibroblasts, dose response, cytotoxicity control for HSP40 inhibitor project, cell-based, CellTiter-Glo luminescence, cherry-pick, set 2 (AID 624265); format: functional
[8] = target: Mitochondrial peptide methionine sulfoxide reductase (Bos taurus, UniProt P54149); format: functional;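 note: absorbance read-out, biochemical high-throughput dose-response screen for MsrA inhibitors, confirmatory; recombinant bovine MsrA coupled to E. coli TrxB with NADPH and selenocystamine; potency is for inhibitors of MsrA activity on DMSO substrate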
Sequence of Mitochondrial peptide methionine sulfoxide reductase (P54149 whole entry): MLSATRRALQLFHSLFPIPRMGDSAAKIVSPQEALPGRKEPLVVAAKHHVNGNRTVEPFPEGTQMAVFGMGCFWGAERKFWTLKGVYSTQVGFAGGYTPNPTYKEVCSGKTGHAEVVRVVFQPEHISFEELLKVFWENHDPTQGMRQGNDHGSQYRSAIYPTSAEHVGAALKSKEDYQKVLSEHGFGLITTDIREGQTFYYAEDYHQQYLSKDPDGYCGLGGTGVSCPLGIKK

[9] = target: T1, ATP-dependent translocase ABCB1 (Homo sapiens, UniProt P08183); test: ABCG2 efflux pump inhibitor potency, dose response, Ig-MXP3 cells, JC-1, flow cytometry, set 2 (AID 504566); format: functional; conditions: read-out: EC50_MICROM_;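 note: flow cytometry median green fluorescence of retained JC-1 dye; potency of efflux pump inhibition measured as rising substrate retention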
T1 sequence (P08183 whole entry): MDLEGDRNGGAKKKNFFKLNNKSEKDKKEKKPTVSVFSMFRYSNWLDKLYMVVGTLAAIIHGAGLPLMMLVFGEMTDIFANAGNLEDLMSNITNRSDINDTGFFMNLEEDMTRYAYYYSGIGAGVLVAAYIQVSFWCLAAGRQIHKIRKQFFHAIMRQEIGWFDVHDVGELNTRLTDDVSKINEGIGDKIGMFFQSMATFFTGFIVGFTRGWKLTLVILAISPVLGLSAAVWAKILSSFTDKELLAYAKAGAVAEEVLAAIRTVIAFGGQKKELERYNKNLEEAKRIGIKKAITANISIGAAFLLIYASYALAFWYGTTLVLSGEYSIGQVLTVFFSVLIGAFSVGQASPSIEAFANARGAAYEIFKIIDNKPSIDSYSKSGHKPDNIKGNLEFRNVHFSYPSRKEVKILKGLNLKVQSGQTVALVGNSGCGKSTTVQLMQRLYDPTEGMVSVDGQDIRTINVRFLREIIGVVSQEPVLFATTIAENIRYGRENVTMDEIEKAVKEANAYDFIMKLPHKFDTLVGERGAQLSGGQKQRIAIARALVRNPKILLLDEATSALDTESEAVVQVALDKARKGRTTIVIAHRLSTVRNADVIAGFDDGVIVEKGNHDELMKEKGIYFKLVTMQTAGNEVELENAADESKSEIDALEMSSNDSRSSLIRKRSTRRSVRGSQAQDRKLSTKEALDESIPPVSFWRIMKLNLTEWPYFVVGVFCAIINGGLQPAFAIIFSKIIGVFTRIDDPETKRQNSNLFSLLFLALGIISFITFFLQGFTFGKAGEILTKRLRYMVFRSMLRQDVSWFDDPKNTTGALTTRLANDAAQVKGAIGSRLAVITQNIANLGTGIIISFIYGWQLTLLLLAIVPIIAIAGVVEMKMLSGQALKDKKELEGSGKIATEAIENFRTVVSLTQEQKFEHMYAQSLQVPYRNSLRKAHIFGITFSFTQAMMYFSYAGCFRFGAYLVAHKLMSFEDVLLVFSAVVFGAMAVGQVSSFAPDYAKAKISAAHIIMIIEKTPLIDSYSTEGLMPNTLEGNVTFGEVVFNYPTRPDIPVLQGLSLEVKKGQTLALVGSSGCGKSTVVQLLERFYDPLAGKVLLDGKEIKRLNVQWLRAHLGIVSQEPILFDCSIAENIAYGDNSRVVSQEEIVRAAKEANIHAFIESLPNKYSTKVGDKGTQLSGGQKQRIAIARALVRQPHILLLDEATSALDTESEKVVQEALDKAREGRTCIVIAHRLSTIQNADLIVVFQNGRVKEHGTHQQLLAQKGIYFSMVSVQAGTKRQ

[10] = target: T1, ATP-dependent translocase ABCB1; test: ABCB1 efflux inhibitor potency, dose response, Jurkat-DNR cells, JC-1, flow cytometry, set 2 (AID 504569); format: functional; conditions: read-out: EC50_MICROM_;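 note: potency of pump inhibitors that raise cellular JC-1 green fluorescence up to the nicardipine level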
BJ [11] = test: cytotoxicity toward BJ-TERT fibroblasts, dose response, cell-based, RAS-independent, luminescence (AID 1933); format: functional; conditions: Homo sapiens
BJ [12] = test: cells; format: functional, cell-based; conditions: Homo sapiens
BJ [13] = test: cytotoxicity toward BJ-TERT-LT-ST fibroblasts, dose response, cell-based, RAS-independent, luminescence (AID 1935); format: functional; conditions: Homo sapiens;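 note: BJ fibroblasts immortalized with TERT plus LT and ST oncogenes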
[14] = cytotoxicity toward DRD oncogenic fibroblasts, dose response, cell-based, non-viral oncogenic, luminescence (AID 1934); format: functional; conditions: Homo sapiens
[15] = target: T2, Heat shock factor protein 1 (Mus musculus, UniProt P38532); test: HSF1 potentiators in luciferase reporter cells, confirmation, cell-based, NIH3T3, luminescence, dose retest (AID 435004); format: functional;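 note: stress induced by proteasome inhibitor MG132 added 30 min after compound; luciferase reporter driven by HSF1 response element in NIH3T3 cells; actives raise luminescence as potentiators of the MG132 stress response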
T2 sequence (P38532 whole entry): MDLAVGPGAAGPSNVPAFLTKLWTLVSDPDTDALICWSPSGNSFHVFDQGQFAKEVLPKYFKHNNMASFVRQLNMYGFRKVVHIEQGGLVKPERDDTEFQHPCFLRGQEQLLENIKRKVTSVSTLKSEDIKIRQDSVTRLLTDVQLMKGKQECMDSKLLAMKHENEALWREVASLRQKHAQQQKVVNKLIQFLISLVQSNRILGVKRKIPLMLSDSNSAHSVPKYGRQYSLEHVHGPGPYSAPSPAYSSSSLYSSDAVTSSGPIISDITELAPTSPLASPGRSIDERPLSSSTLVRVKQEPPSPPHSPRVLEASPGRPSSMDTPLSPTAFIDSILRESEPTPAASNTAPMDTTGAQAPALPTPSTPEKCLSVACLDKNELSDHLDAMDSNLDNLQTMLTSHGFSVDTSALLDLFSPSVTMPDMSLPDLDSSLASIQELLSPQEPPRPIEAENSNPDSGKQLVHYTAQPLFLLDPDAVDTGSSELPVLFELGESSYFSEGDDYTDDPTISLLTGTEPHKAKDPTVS

BJ [16] = test: cytotoxicity toward Ras-transformed BJeLR fibroblasts, dose response, cell-based, alamar blue fluorescence, cherrypicked samples (AID 2631); format: functional; conditions: Homo sapiens;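 note: confirmatory dose-response assay in RAS-dependent BJ fibroblasts engineered with TERT, LT and ST, with cytotoxicity read by fluorescence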
[17] = Fluorescence-based cell-based high throughput dose response assay for inhibitors of the interaction of nucleotide-binding oligomerization domain containing 2 (NOD2) and the receptor-interacting serine-threonine kinase 2 (RIPK2).; format: functional; conditions: Homo sapiens
Beta Lactamase = Beta Lactamase (Pseudomonas aeruginosa, UniProt Q932Y6); test: beta-lactamase reporter inhibitor potency, dose response, artefact control for NOD2-RIPK2 interaction inhibitor project, BLA reporter cells, FRET fluorescence (AID 651552); format: functional, cell-based
Sequence of Beta Lactamase (Q932Y6 whole entry): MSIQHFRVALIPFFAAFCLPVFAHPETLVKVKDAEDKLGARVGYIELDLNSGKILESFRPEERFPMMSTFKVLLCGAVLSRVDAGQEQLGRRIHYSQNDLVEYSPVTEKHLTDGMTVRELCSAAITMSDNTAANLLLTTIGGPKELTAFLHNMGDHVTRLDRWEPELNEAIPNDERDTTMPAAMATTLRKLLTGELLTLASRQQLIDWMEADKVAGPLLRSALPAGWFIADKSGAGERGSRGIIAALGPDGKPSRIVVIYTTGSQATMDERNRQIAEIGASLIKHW

[18] = target: T3, DNA repair protein RAD52 homolog (Homo sapiens, UniProt P43351); format: functional, biochemical
T3 sequence (P43351 whole entry): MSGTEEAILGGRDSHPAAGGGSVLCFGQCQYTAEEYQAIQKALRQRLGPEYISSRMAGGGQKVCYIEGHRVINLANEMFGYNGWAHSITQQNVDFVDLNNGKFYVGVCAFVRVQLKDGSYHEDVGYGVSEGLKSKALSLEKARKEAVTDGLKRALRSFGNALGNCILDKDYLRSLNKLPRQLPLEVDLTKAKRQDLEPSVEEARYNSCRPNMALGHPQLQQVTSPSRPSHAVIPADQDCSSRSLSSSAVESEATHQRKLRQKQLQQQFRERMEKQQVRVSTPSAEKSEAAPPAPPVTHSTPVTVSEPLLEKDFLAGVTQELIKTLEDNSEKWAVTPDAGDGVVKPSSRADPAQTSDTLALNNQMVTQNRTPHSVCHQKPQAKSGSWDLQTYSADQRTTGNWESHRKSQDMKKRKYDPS

For `CCC(C)n1ncn(-c2ccc(N3CCN(c4ccc(OCC5COC(Cn6cncn6)(c6ccc(Cl)cc6Cl)O5)cc4)CC3)cc2)c1=O` (configuration not stated) [ITRACONAZOLE], the EC50 [1] was > 120 µM (not active), the EC50 [2] was 50 µM (active) and the EC50 [3] was > 120 µM (not active). The EC50 [4] was 0.1 µM (active), the EC50 [5] was > 60 µM (not active) and the AC50 [6] was < 0.195 µM (active). For the same compound, the AbsAC35_uM [7] was 105.6 µM.
In the case of `O=C(O)CC1SC(N/N=C/C=C/c2ccccc2)=NC1=O` (configuration not stated), the IC50 [8] is reported as 97.5 µM (inactive).
For `Cc1ccc(-c2cc3nc(-c4ccccc4)cc(N4CCN(C(=O)c5ccco5)CC4)n3n2)cc1`, the EC50 [9] was 0.95 µM (active) and the EC50 [10] was 2.41 µM (active).
In the case of `COc1ccc(/N=C2\S/C(=C\c3ccc(Cl)c([N+](=O)[O-])c3)C(=O)N2CCN(C)C)cc1`, the EC50 [1] is reported as > 120 µM (not active), the EC50 (BJ [11]) is reported as 3.18 µM (inconclusive) and the EC50 [2] is reported as 8.46 µM (active). The EC50 [3] was 8.97 µM (active), the EC50 (BJ [12]) was 9.3 µM (inconclusive) and the EC50 (BJ [13]) was 3.03 µM (inconclusive). For the same compound, the EC50 [14] was 2.8 µM (inconclusive), the EC50 [15] was 7.54 µM (active) and the EC50 (BJ [16]) was 1.16 µM (active). The IC50 [17] was 1.5 µM (active), the IC50 (Beta Lactamase) was 49.7 µM (inactive) and the AC50 [18] was 10.8 µM (active).
